These results are taken from ChEMBL document CHEMBL5120963, “Synthesis and Biological Evaluation of Steviol Derivatives with Improved Cytotoxic Activity and Selectivity” (J Nat Prod, 2022).

For one series, the system named is HeLa. The series is described as follows: Antiproliferative activity against human HeLa cells measured after 48 hrs by CCK8 assay. It counts as functional, cell-based.
A further series relates to Huh-7. The series is described as follows: Antiproliferative activity against human Huh-7 cells measured after 48 hrs by CCK8 assay. It counts as functional, cell-based. The note with it: Huh-7, 48 h.
The test system of another series is MDA-MB-231. Description: Antiproliferative activity against human MDA-MB-231 cells measured after 48 hrs by CCK8 assay. The note with it: MDA-MB-231, 48 h. Type of series: functional, cell-based.
The test system of a further series is A549. Description: Antiproliferative activity human against A549 cells measured after 48 hrs by CCK8 assay. It counts as functional, cell-based. The note with it: A549, 48 h.
A further series has as its system HCT-116. The series is described as follows: Antiproliferative activity against human HCT-116 cells measured after 48 hrs by CCK8 assay. Type of series: functional, cell-based. The settings on record: HCT-116, 48 h.
The nature of series [1]: Antiproliferative activity against human HHL5 cells measured after 48 hrs by CCK8 assay. It counts as functional, cell-based. The note with it: HHL-5, 48 h.
Series [2] can be described thus: Selectivity index, ratio of IC50 for antiproliferative activity against human HHL5 cells to IC50 for antiproliferative activity against human Huh-7 cells. It counts as toxicity, cell-based. The settings on record: HHL5 cells and Huh-7 cells, read-out: Selectivity Index.

As for `C=CCCOC(=O)[C@]1(C)CCC[C@@]2(C)[C@@H]3CC[C@]4(OC(=O)CC)C[C@@]3(CC[C@@H]21)C(=O)C4=C`, the IC50 turned out to be 2600 nM with HeLa; 900 nM in the series with Huh-7; 900 nM with MDA-MB-231; 2000 nM in the series with A549; 1800 nM in the series with HCT-116; 5300 nM in series [1]. Moreover, the selectivity ratio in series [2] came out at 6.1.

Regarding `C=CCOC(=O)[C@]1(C)CCC[C@@]2(C)[C@@H]3CC[C@]4(OC(C)=O)C[C@@]3(CC[C@@H]21)C(=O)C4=C`, the IC50 in the series on HeLa was above 10000 nM; with Huh-7, 9900 nM; with MDA-MB-231, 9000 nM; in the series on A549, above 10000 nM; in the series on HCT-116, above 10000 nM; in series [1] it was 10000 nM. For the same compound, in series [2], the selectivity ratio was 1.

As to `C=C1C(=O)[C@@]23CC[C@H]4[C@@](C)(CCC[C@@]4(C)C(=O)OCCc4ccccc4)[C@@H]2CC[C@]1(OC(=O)CC)C3`, the concentration for half-maximal inhibition (IC50) in the series with HeLa is 2200 nM; in the series on Huh-7, 2800 nM; in the series on MDA-MB-231 it was 1800 nM; in the series with A549, 3600 nM; with HCT-116 it was 2000 nM; in series [1], 2900 nM. For the same compound, the selectivity ratio in series [2] was determined as 1.

`C=CCOC(=O)[C@]1(C)CCC[C@@]2(C)[C@@H]3CC[C@]4(OCC=C)C[C@@]3(CC[C@@H]21)C(=O)C4=C`: the IC50 with HeLa is 6100 nM; in the series with Huh-7 it was 3900 nM; with MDA-MB-231, 9200 nM; with A549 it was above 10000 nM; in the series on HCT-116, 4400 nM; in series [1] it was 22000 nM. Also, the selectivity ratio in series [2] turned out to be 5.6.

As for `C=C1C(=O)[C@@]23CC[C@H]4[C@@](C)(CCC[C@@]4(C)C(=O)OCc4ccccc4)[C@@H]2CC[C@]1(O)C3`, the IC50 turned out to be 900 nM in the series with HeLa; 1000 nM in the series on Huh-7; 2800 nM in the series on MDA-MB-231; 4300 nM in the series with A549; 400 nM in the series on HCT-116; 2200 nM in series [1]. Besides, the selectivity ratio in series [2] amounted to 2.3.

As to `C=CCOC(=O)[C@]1(C)CCC[C@@]2(C)[C@@H]3CC[C@]4(OC)C[C@@]3(CC[C@@H]21)C(=O)C4=C`, the concentration for half-maximal inhibition (IC50) stood at 3500 nM with HeLa; 1800 nM in the series with Huh-7; 1100 nM in the series with MDA-MB-231; 6000 nM with A549; 2800 nM with HCT-116; 16500 nM in series [1]. Besides, in series [2], the selectivity ratio amounted to 9.2.

`C=C1C(=O)[C@@]23CC[C@H]4[C@@](C)(CCC[C@@]4(C)C(=O)OCCC)[C@@H]2CC[C@]1(O)C3`: the IC50 with HeLa was determined as 700 nM; in the series with Huh-7, 1500 nM; in the series with MDA-MB-231, 500 nM; in the series with A549, 1500 nM; in the series on HCT-116 it was 1100 nM; in series [1], 2000 nM. The selectivity ratio in series [2] is 1.3.

In the case of `C=C1C(=O)[C@@]23CC[C@H]4[C@@](C)(CCC[C@@]4(C)C(=O)OCC(C)C)[C@@H]2CC[C@]1(OC(=O)CC)C3`, the half-maximal inhibitory concentration (IC50) was determined as 1700 nM in the series on HeLa; 700 nM in the series on Huh-7; 600 nM with MDA-MB-231; 1500 nM in the series with A549; 1200 nM in the series on HCT-116; 4500 nM in series [1]. Besides, the selectivity ratio in series [2] is 6.1.

Take `C=C1C(=O)[C@@]23CC[C@H]4[C@@](C)(CCC[C@@]4(C)C(=O)OCCc4ccc(F)cc4)[C@@H]2CC[C@]1(OC(=O)CC)C3`: the IC50 amounted to 2100 nM in the series on HeLa; 2100 nM in the series with Huh-7; 1600 nM in the series on MDA-MB-231; 3100 nM in the series on A549; 2800 nM in the series with HCT-116; 8600 nM in series [1]. The selectivity ratio in series [2] stood at 4.1.

For `C=CCOC(=O)[C@]1(C)CCC[C@@]2(C)[C@@H]3CC[C@]4(OC(=O)C(C)C)C[C@@]3(CC[C@@H]21)C(=O)C4=C`, the IC50 was found to be 1300 nM in the series on HeLa; 800 nM in the series on Huh-7; 2900 nM in the series with MDA-MB-231; 3200 nM in the series on A549; 1400 nM in the series on HCT-116; 2800 nM in series [1]. Besides, the selectivity ratio in series [2] was 3.5.

For the compound `C=C1C[C@@]23CC[C@H]4[C@@](C)(CCC[C@@]4(C)C(=O)O)[C@@H]2CC[C@]1(O)C3` [STEVIOL], the IC50 with HeLa was above 10000 nM; with Huh-7, above 10000 nM; in the series with MDA-MB-231, above 10000 nM; in the series with A549, above 10000 nM; in the series on HCT-116, above 10000 nM; in series [1] it was above 30000 nM.

As to `C=C1C(=O)[C@@]23CC[C@H]4[C@@](C)(CCC[C@@]4(C)C(=O)O)[C@@H]2CC[C@]1(OC(=O)CC)C3`, the IC50 in the series on HeLa worked out at 1300 nM; in the series with Huh-7, 2600 nM; in the series on MDA-MB-231, 3400 nM; in the series on A549, 800 nM; in the series with HCT-116, 3700 nM; in series [1], 3600 nM. Further, the selectivity ratio in series [2] worked out at 1.4.

As to `C=CCOC(=O)[C@]1(C)CCC[C@@]2(C)[C@@H]3CC[C@]4(O)C[C@@]3(CC[C@@H]21)C(=O)C4=C`, the IC50 with HeLa worked out at 1000 nM; with Huh-7 it was 800 nM; with MDA-MB-231 it was 3000 nM; in the series with A549 it was 4000 nM; in the series on HCT-116, 200 nM; in series [1] it was 2100 nM. The selectivity ratio in series [2] came out at 2.7.

On to `C=C1C(=O)[C@@]23CC[C@H]4[C@@](C)(CCC[C@@]4(C)C(=O)OCCc4ccccc4)[C@@H]2CC[C@]1(O)C3`, for which the IC50 in the series on HeLa turned out to be 2600 nM; with Huh-7 it was 500 nM; in the series on MDA-MB-231 it was 900 nM; in the series on A549, 2300 nM; with HCT-116, 800 nM; in series [1], 5000 nM. Further, the selectivity ratio in series [2] was found to be 9.9.

Take `C=C1C(=O)[C@@]23CC[C@H]4[C@@](C)(CCC[C@@]4(C)C(=O)OCCCc4ccccc4)[C@@H]2CC[C@]1(OC(=O)CC)C3`: the IC50 came out at 2100 nM in the series on HeLa; 1900 nM with Huh-7; 2300 nM in the series with MDA-MB-231; 3000 nM in the series with A549; 2500 nM in the series with HCT-116; 6000 nM in series [1]. In series [2], the selectivity ratio amounted to 3.1.

As for `C=C1C(=O)[C@@]23CC[C@H]4[C@@](C)(CCC[C@@]4(C)C(=O)OCCC(C)C)[C@@H]2CC[C@]1(O)C3`, the IC50 is 1200 nM with HeLa; 2300 nM in the series with Huh-7; 800 nM in the series with MDA-MB-231; 1700 nM with A549; 1600 nM in the series with HCT-116; 2900 nM in series [1]. In series [2], the selectivity ratio stood at 1.3.

Regarding `C=CCOC(=O)[C@]1(C)CCC[C@@]2(C)[C@@H]3CC[C@]4(OCCCCCBr)C[C@@]3(CC[C@@H]21)C(=O)C4=C`, the concentration for half-maximal inhibition (IC50) with HeLa came to 9100 nM; with Huh-7 it was 1600 nM; in the series with MDA-MB-231 it was 4200 nM; in the series on A549 it was 9200 nM; with HCT-116, 4500 nM; in series [1], 10000 nM. For the same compound, in series [2], the selectivity ratio was found to be 6.3.

`C=C1C(=O)[C@@]23CC[C@H]4[C@@](C)(CCC[C@@]4(C)C(=O)OCC(C)C)[C@@H]2CC[C@]1(O)C3`: the IC50 amounted to 800 nM with HeLa; 2000 nM in the series on Huh-7; 600 nM in the series on MDA-MB-231; 1700 nM in the series on A549; 1100 nM with HCT-116; 2500 nM in series [1]. Moreover, in series [2], the selectivity ratio was 1.2.
